#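 A five-concentration, 48-hour dose response in 96-well plates underlies each endpoint, interpolated linearly between surrounding concentrations. TGI: total growth inhibition.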
# How the values were obtained:
# Experiment in all cases: inhibition of tumour cell growth, NCI panel, 48 h
# EKVX NSCLC = system: EKVX NSCLC
# HCT-15 colon = system: HCT-15 colon
# IGROV1 ovarian = system: IGROV1 ovarian
# HOP-62 NSCLC = system: HOP-62 NSCLC
# KM12 colon = system: KM12 colon
# UO-31 renal = system: UO-31 renal
# BT-549 breast = system: BT-549 breast
# COLO 205 colon = system: COLO 205 colon
# HT29 colon = system: HT29 colon
# UACC-62 melanoma = system: UACC-62 melanoma
# NCI-H522 lung = system: NCI-H522 lung
# MALME-3M melanoma = system: MALME-3M melanoma
# TK-10 renal = system: TK-10 renal
# SNB-19 CNS = system: SNB-19 CNS
# SF-539 CNS = system: SF-539 CNS
# NCI-H23 lung = system: NCI-H23 lung
# HCC-2998 colon = system: HCC-2998 colon
# SK-OV-3 ovarian = system: SK-OV-3 ovarian
# NCI-H460 lung = system: NCI-H460 lung
# ACHN renal = system: ACHN renal
# NCI-H226 lung = system: NCI-H226 lung
# A498 renal = system: A498 renal
# SNB-75 CNS = system: SNB-75 CNS
# MOLT-4 leukemia = system: MOLT-4 leukemia
# DU-145 prostate = system: DU-145 prostate
# OVCAR-4 ovarian = system: OVCAR-4 ovarian
# MCF7 breast = system: MCF7 breast
# NCI/ADR-RES ovarian = system: NCI/ADR-RES ovarian
# OVCAR-5 ovarian = system: OVCAR-5 ovarian
# MDA-MB-231 breast = system: MDA-MB-231 breast
# SR leukemia = system: SR leukemia
# LOX IMVI melanoma = system: LOX IMVI melanoma
# SF-295 CNS = system: SF-295 CNS
# U251 CNS = system: U251 CNS
# SK-MEL-2 melanoma = system: SK-MEL-2 melanoma
# 786-0 renal = system: 786-0 renal
# M14 melanoma = system: M14 melanoma
# HCT-116 colon = system: HCT-116 colon
# HS 578T breast = system: HS 578T breast
# PC-3 prostate = system: PC-3 prostate
# UACC-257 melanoma = system: UACC-257 melanoma
# RXF 393 renal = system: RXF 393 renal
# RPMI-8226 leukemia = system: RPMI-8226 leukemia
# MDA-MB-435 = system: MDA-MB-435
# MDA-N = system: MDA-N
# SN12C renal = system: SN12C renal
# K-562 leukemia = system: K-562 leukemia
# SK-MEL-5 melanoma = system: SK-MEL-5 melanoma
# CAKI-1 renal = system: CAKI-1 renal
# HL-60(TB) leukemia = system: HL-60(TB) leukemia
# SF-268 CNS = system: SF-268 CNS
# OVCAR-3 ovarian = system: OVCAR-3 ovarian
# SK-MEL-28 melanoma = system: SK-MEL-28 melanoma
# OVCAR-8 ovarian = system: OVCAR-8 ovarian
# SW-620 colon = system: SW-620 colon
# A549 NSCLC = system: A549 NSCLC
# HOP-92 NSCLC = system: HOP-92 NSCLC
smiles,measurement,setting,value
C/C(Cl)=N/OC(=O)Nc1ccc(F)c([N+](=O)[O-])c1,TGI,EKVX NSCLC,33.1 µM
same,TGI,HCT-15 colon,12.6 µM
same,TGI,IGROV1 ovarian,17.9 µM
same,TGI,HOP-62 NSCLC,33.9 µM
same,TGI,KM12 colon,33.8 µM
same,TGI,UO-31 renal,20.5 µM
same,TGI,BT-549 breast,29.8 µM
same,TGI,COLO 205 colon,5.38 µM
same,TGI,HT29 colon,> 52.7 µM
same,TGI,UACC-62 melanoma,> 63.2 µM
same,TGI,NCI-H522 lung,4.27 µM
same,TGI,MALME-3M melanoma,8.88 µM
same,TGI,TK-10 renal,13.2 µM
same,TGI,SNB-19 CNS,37.3 µM
same,TGI,SF-539 CNS,> 100 µM
same,TGI,NCI-H23 lung,48.5 µM
same,TGI,HCC-2998 colon,> 100 µM
same,TGI,SK-OV-3 ovarian,45 µM
same,TGI,NCI-H460 lung,> 100 µM
same,TGI,ACHN renal,8.23 µM
same,TGI,NCI-H226 lung,70.1 µM
same,TGI,A498 renal,39 µM
same,TGI,SNB-75 CNS,25 µM
same,TGI,MOLT-4 leukemia,3.9 µM
same,TGI,DU-145 prostate,33 µM
same,TGI,OVCAR-4 ovarian,40.7 µM
same,TGI,MCF7 breast,> 49 µM
same,TGI,NCI/ADR-RES ovarian,> 100 µM
same,TGI,OVCAR-5 ovarian,> 53.4 µM
same,TGI,MDA-MB-231 breast,37.4 µM
same,TGI,SR leukemia,30.7 µM
same,TGI,LOX IMVI melanoma,18.5 µM
same,TGI,SF-295 CNS,> 100 µM
same,TGI,U251 CNS,41.9 µM
same,TGI,SK-MEL-2 melanoma,32.2 µM
same,TGI,786-0 renal,16.5 µM
same,TGI,M14 melanoma,> 48 µM
same,TGI,HCT-116 colon,> 30.8 µM
same,TGI,HS 578T breast,16.4 µM
same,TGI,PC-3 prostate,33.2 µM
same,TGI,UACC-257 melanoma,53.2 µM
same,TGI,RXF 393 renal,25.4 µM
same,TGI,RPMI-8226 leukemia,> 25.7 µM
same,TGI,MDA-MB-435,30.8 µM
same,TGI,MDA-N,35.1 µM
same,TGI,SN12C renal,19.4 µM
same,TGI,K-562 leukemia,> 23.9 µM
same,TGI,SK-MEL-5 melanoma,29.2 µM
same,TGI,CAKI-1 renal,3.69 µM
same,TGI,HL-60(TB) leukemia,6.02 µM
same,TGI,SF-268 CNS,32.8 µM
same,TGI,OVCAR-3 ovarian,35.8 µM
same,TGI,SK-MEL-28 melanoma,37.1 µM
same,TGI,OVCAR-8 ovarian,31.7 µM
same,TGI,SW-620 colon,25.6 µM
same,TGI,A549 NSCLC,> 58.7 µM
same,TGI,HOP-92 NSCLC,> 72.5 µM

# Source: PubChem BioAssay (NCI)
